From ChEMBL document CHEMBL1201862, “PubChem BioAssay data set” (2004)
The source made the active and inactive calls.

Tests used:
[1] = molecular target: 5-hydroxytryptamine receptor 5A (Homo sapiens, UniProt P47898); experiment: Counterscreen for agonists of OPRM1-OPRD1 heterodimerization: luminescence-based cell-based high throughput dose response assay to identify agonists of 5-hydroxytryptamine (serotonin) 5A receptor (HTR5A). [Related pubchem assays (depositor defined):AID504326, AID504355, AID504692, AID504904, AID504905]; assay type: functional
Streptococcus = experiment: Group A Streptococcus viability loss, dose response, counter-screen for streptokinase expression inhibitor project, luminescence, BacTiterGlo (AID 1915); assay type: functional, organism-based;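 further: potency for reduction of bacterial viability or growth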
[2] = molecular target: Delta-type opioid receptor (Homo sapiens, UniProt P41143); experiment: Counterscreen for agonists of heterodimerization of the mu 1 (OPRM1) and delta 1 (OPRD1) opioid receptors: Luminescence-based cell-based high throughput dose response assay to identify agonists of OPRD1 homodimerization. [Related pubchem assays (depositor defined):AID504326, AID504355, AID504692, AID504904, AID504905]; assay type: functional
[3] = molecular target: T1, Replicative DNA helicase DnaB (Mycobacterium tuberculosis, UniProt P9WMR3); experiment: DnaB intein splicing inhibitors, dose response, biochemical, cell-free fluorescence (AID 449749); assay type: functional
T1 sequence (P9WMR3 whole entry): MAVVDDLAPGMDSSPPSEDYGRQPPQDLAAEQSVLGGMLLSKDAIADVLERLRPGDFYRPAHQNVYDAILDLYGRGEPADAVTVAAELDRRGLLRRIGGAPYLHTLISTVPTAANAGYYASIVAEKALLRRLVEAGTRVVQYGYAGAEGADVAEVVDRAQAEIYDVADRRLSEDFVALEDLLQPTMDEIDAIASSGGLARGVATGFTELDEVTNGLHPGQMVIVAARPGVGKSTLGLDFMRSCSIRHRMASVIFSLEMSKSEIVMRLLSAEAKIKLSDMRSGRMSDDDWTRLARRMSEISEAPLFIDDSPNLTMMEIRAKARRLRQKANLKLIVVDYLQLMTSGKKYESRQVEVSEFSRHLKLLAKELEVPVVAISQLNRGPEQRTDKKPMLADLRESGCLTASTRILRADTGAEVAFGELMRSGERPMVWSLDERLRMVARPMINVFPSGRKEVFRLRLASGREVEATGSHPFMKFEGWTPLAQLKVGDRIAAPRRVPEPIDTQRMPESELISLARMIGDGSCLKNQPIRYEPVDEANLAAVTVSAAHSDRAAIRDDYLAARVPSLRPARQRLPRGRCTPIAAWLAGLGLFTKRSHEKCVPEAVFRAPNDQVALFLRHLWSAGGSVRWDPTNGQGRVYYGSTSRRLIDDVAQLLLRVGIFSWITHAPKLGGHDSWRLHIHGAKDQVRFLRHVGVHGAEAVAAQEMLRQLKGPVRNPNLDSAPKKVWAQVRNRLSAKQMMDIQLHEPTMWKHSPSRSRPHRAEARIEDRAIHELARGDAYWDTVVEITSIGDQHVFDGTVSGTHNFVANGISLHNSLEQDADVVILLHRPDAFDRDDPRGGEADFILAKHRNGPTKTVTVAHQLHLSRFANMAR

[4] = Shn3 3'UTR reporter inhibitors, dose response, cell-based, Clone20 osteoblasts, firefly luciferase, cherry-picked (AID 624132); assay type: functional;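 further: firefly luciferase luminescence from reporter carrying the Shn3 3'UTR in osteoblasts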
[5] = inhibitors of intracellular T. cruzi replication, confirmation, NIH3T3 host cells, beta-gal luminescence (AID 2044); assay type: functional, cell-based;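 further: intracellular parasites grown in NIH/3T3 mouse fibroblasts as host cells; luminescent beta-galactosidase reporter signal from transgenic T. cruzi replicating inside host cells; inhibitors lower the luminescence signal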
[6] = tested on: Streptococcus sp. 'group A'; experiment: growth inhibition of control SK(-) GAS strain, dose response, counter-screen for streptokinase expression inhibitor project, luminescence, kanamycin, BacTiterGlo, confirmation (AID 1900); assay type: functional, organism-based
HEK293 = experiment: inhibitors of LMP1-driven NF-kB reporter, dose response, cell-based, HEK293, luciferase, cherry-pick (AID 588343); assay type: functional; settings: Homo sapiens
[7] = inhibitors of clade B AD8 Env fusion, dose response, cell-based, cherry-pick (AID 652062); assay type: functional;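 further: luciferase signal from cell-cell fusion driven by HIV-1 clade B AD8 Env; potency is for inhibitors of fusion seen as a drop in luminescence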
Beta Lactamase = Beta Lactamase (Pseudomonas aeruginosa, UniProt Q932Y6); experiment: beta-lactamase reporter inhibitor potency, dose response, artefact control for TLR9-MyD88 binding inhibitor project, BLA reporter cells, FRET fluorescence (AID 588341); assay type: cell-based;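 further: cell based assay in CHO-K1 cells stably expressing beta-lactamase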
Protein RecA = molecular target: T2, Protein RecA (Mycobacterium tuberculosis, UniProt P9WHJ3); experiment: Fluorescence Cell-Free Homogeneous Dose Retest to Identify Inhibitors of RecA-Intein Splicing Activity. [Related pubchem assays (depositor defined):AID2097, AID2223, AID489010, AID492950]; assay type: functional
T2 sequence (P9WHJ3 whole entry): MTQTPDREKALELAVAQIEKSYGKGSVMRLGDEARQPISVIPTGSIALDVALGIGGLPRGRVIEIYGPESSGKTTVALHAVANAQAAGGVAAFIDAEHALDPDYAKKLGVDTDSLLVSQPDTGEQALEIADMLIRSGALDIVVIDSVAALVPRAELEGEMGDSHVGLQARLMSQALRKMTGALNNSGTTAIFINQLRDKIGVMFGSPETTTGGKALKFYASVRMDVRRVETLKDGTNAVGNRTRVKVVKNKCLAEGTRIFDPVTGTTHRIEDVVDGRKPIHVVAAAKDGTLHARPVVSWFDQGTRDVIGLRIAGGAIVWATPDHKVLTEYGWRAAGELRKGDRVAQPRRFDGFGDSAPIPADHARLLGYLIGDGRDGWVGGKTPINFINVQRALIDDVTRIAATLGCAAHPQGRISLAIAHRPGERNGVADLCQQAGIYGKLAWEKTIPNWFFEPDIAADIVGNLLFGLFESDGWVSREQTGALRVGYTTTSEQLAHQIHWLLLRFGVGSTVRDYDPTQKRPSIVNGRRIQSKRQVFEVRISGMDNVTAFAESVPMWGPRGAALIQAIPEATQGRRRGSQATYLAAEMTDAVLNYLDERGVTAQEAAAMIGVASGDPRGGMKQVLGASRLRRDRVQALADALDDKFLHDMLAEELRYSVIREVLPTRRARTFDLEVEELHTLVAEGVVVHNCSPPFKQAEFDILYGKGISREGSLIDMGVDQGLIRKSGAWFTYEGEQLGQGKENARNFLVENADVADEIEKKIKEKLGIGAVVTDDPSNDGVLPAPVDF

Mu-type opioid receptor = Mu-type opioid receptor (Homo sapiens, UniProt P35372); experiment: Counterscreen for agonists of heterodimerization of the mu 1 (OPRM1) and delta 1 (OPRD1) opioid receptors: Luminescence-based cell-based high throughput dose response assay to identify agonists of OPRM1 homodimerization.; assay type: functional;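 further: U2OS cells expressing OPRM1 and beta-arrestin as split beta-galactosidase partners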
[8] = inhibitors of HIV Env-driven cell fusion, dose response, cherry-pick (AID 652057); assay type: functional, cell-based
[9] = control 3'UTR Renilla luciferase suppression, dose response, counter-screen for Shn3 inhibitor project, cell-based, Clone20-Shn3RL, cherry-picked (AID 624133); assay type: functional
[10] = cytotoxicity toward NIH3T3 fibroblasts, dose response, counter-screen, cell-based, ATP luminescence, mouse fibroblasts (AID 2010); assay type: functional;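 further: cells exposed to compound for about 90 hours before reading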
[11] = CEM21 lymphoblast cell cytotoxicity, dose response, cytotoxicity control for viral fusion inhibitor project, CellTiter-Glo luminescence, cherry-picked (AID 652042); assay type: functional, cell-based;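 further: potency for signal decrease meaning cytotoxicity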
[12] = molecular target: G-protein coupled receptor 55 (Homo sapiens, UniProt Q9Y2T6); experiment: GPR55 agonists via beta-arrestin recruitment, primary screen, imaging, U2OS cells, beta-arrestin-GFP redistribution (AID 1961); assay type: functional
Nonstructural protein 1 = Nonstructural protein 1 (Influenza A virus, UniProt Q194T2); assay type: functional, Influenza A virus (A/California/07/2009(H1N1))
Streptokinase A = molecular target: T3, Streptokinase A (Streptococcus pyogenes serotype M1, UniProt P10520); experiment: S. pyogenes streptokinase expression inhibitors, potency, dose response, plasminogen activation absorbance, OD405 (AID 1914); assay type: functional, Streptococcus pyogenes M1 GAS;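 further: secreted streptokinase activity via plasminogen activation per viability signal from cell pellet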
T3 sequence (P10520 whole entry): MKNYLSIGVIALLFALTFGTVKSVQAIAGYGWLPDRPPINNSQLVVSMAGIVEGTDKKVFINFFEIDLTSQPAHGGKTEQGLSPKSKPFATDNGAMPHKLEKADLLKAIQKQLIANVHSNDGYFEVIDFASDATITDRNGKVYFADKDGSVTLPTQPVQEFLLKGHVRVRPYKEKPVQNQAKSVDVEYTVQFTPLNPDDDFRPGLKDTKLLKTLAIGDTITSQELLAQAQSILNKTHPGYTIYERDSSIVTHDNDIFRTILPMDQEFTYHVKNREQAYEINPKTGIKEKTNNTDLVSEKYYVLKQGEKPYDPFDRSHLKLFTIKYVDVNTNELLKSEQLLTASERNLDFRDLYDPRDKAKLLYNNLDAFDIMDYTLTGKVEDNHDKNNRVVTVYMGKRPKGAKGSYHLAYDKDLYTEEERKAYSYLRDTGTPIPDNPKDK

INS1 = experiment: beta cell apoptosis inhibitors, cytokine rescue, dose response, luminescence, retest (AID 449756); assay type: functional, cell-based; settings: Rattus norvegicus;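 further: cell death triggered by IL-1 beta plus TNF-alpha plus IFN-gamma mixture; protective hits raise ATP signal compared with cytokine alone wells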
[13] = HepG2 cell cytotoxicity, dose response, cytotoxicity control for Shn3 inhibitor project, CellTiter-Glo, cherry-picked (AID 624134); assay type: functional, cell-based
CHO = experiment: cytotoxicity in TLR9-MyD88 CHO cells, dose response, cytotoxicity control for TLR9-MyD88 binding inhibitor project, cell-based, luminescence (AID 588339); assay type: functional, hamster; settings: Cricetulus griseus;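 further: CHO cells stably coexpressing TLR9 and MyD88 fusions from primary screen; compound exposure lasted 48 hours before viability readout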
[14] = ZM109 Env clade C HIV-1 fusion inhibitors, dose response, HeLa effector, CEM target cells, luciferase, cherry-pick (AID 652058); assay type: functional, cell-based

Delta-type opioid receptor, sequence (P41143 whole entry): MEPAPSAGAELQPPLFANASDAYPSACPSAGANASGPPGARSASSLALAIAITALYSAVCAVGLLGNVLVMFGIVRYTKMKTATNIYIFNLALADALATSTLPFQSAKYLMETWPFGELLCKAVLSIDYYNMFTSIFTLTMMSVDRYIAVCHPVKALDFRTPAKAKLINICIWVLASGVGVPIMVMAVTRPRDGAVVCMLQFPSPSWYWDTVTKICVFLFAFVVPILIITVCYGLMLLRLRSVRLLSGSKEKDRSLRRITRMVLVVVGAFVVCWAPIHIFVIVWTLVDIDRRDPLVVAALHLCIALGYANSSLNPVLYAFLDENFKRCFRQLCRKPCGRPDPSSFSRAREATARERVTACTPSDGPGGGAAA
Mu-type opioid receptor, sequence (P35372 whole entry, the tested form may be a part): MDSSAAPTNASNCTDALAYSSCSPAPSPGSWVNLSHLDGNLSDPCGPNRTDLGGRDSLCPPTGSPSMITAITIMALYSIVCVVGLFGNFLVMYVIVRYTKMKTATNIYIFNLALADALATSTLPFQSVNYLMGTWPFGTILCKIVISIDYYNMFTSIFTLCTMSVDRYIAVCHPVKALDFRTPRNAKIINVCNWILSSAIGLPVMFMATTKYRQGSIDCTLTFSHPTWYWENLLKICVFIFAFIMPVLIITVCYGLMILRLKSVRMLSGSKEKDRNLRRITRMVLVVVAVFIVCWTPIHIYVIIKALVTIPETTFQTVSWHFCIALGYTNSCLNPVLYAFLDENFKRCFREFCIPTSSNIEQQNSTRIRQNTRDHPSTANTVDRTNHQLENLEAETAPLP
Beta Lactamase, sequence (Q932Y6 whole entry): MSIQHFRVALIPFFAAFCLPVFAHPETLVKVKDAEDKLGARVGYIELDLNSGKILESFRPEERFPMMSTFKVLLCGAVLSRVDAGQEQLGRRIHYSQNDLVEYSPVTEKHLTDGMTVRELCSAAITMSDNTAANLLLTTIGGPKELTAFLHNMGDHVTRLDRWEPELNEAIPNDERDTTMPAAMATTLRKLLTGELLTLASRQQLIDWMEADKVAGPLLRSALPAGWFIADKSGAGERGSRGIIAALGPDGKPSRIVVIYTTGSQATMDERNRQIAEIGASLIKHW
Nonstructural protein 1, sequence (Q194T2 whole entry): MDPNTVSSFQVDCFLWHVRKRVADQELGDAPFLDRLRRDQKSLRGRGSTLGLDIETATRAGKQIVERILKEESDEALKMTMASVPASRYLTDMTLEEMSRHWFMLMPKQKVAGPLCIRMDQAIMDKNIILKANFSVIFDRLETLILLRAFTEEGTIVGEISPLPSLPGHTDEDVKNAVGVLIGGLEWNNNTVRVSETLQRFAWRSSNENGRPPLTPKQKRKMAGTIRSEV
G-protein coupled receptor 55, sequence (Q9Y2T6 whole entry): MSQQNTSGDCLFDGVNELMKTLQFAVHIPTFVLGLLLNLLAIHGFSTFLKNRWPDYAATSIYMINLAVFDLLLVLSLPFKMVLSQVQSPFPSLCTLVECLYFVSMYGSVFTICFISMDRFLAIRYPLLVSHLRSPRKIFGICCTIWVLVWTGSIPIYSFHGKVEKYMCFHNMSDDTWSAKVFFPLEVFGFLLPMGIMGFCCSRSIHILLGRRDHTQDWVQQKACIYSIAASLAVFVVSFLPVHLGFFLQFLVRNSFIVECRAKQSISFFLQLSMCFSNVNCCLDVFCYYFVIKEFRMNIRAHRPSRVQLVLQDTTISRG
5-hydroxytryptamine receptor 5A, sequence (P47898 whole entry): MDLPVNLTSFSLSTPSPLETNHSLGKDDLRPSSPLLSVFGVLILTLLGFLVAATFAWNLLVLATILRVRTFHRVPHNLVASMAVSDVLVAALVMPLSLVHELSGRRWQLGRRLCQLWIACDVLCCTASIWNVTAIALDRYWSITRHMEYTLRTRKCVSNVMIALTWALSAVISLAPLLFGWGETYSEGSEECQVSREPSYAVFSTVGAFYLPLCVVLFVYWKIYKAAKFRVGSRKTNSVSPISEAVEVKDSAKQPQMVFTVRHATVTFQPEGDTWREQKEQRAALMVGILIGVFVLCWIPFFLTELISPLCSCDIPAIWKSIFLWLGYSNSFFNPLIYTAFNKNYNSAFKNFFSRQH

Compound: CCc1ccc(Nc2n[n+](-c3ccccc3)c(-c3c(Cl)cccc3Cl)s2)cc1
- EC50 [1]: > 92.5 µM (inactive)
- EC50 (Streptococcus): 10.3 µM (active)
- EC50 [2]: 14.2 µM (inactive)
- AC50 [3]: 3.71 µM (active)
- AC50 [4]: 5.4 µM (active)
- EC50 [5]: 1.35 µM (active)
- EC50 [6]: 3.58 µM (active)
- AC50 (HEK293): 47.5 µM (active)
- AC50 [7]: 5.91 µM (active)
- IC50 (Beta Lactamase): 3.12 µM (active)
- EC50 (Protein RecA): 9.38 µM (active)
- EC50 (Mu-type opioid receptor): > 92.5 µM (inactive)
- AC50 [8]: 15.5 µM (active)
- AC50 [9]: 19.4 µM (active)
- EC50 [10]: 5.53 µM (active)
- AC50 [11]: 10.8 µM (active)
- EC50 [12]: > 32 µM (inactive)
- IC50 (Nonstructural protein 1): 24.4 µM (active)
- EC50 (Streptokinase A): 7.4 µM (active)
- AC50 (INS1): 3.65 µM (active)
- AC50 [13]: 14.6 µM (active)
- IC50 (CHO): 6.79 µM (active)
- AC50 [14]: 23.3 µM (active)
